Results published in US20220281866A1, “5,8-DISUBSTITUTED-[1,2,4]TRIAZOLO[1,5-A]PYRIDINYL AND 5,8-DISUBSTITUTED-IMIDAZO[1,2-A]PYRIDINE DERIVATIVES USEFUL AS INHIBITORS OF ENTEROPEPTIDASE” (Janssen Pharmaceutica NV, priority 2019, published 2022).

How the values were obtained:
Bovine trypsin = molecular target: T1, Bovine trypsin (Bos taurus, UniProt P00760); experiment: Biochemical Assay of Trypsin (T), H-D-CHA-AR-AMC substrate; conditions: 15 μM substrate, 0.025 nM Trypsin; for inhibition at 0.1 µM: compound 0.1 μM; for inhibition at 1 µM: compound 1 μM; for inhibition at 10 µM: compound 10 μM
T1 construct: purchased Sigma-Aldrich T1426
T1 sequence (P00760 24-246): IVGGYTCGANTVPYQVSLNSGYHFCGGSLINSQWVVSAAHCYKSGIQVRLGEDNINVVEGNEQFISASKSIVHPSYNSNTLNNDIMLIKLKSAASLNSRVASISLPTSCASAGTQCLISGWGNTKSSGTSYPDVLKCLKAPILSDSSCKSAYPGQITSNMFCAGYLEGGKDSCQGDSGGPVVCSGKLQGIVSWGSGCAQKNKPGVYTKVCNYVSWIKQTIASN

[1] = molecular target: T2, Recombinant full-length human EP (Enteropeptidase) (Homo sapiens, UniProt P98073); experiment: In vitro inhibition potencies against Enteropeptidase (EP), fluorescent peptide GDDDDK-naphthylamine substrate; format: biochemical; conditions: 300 μM substrate, 1.25 nM EP; for inhibition at 0.1 µM: compound 0.1 μM; for inhibition at 1 µM: compound 1 μM; for inhibition at 10 µM: compound 10 μM
T2 construct: Recombinant full-length human EP (PeproTech, Cat #450-48C); purchased PeproTech 450-48C
T2 sequence (P98073 whole entry): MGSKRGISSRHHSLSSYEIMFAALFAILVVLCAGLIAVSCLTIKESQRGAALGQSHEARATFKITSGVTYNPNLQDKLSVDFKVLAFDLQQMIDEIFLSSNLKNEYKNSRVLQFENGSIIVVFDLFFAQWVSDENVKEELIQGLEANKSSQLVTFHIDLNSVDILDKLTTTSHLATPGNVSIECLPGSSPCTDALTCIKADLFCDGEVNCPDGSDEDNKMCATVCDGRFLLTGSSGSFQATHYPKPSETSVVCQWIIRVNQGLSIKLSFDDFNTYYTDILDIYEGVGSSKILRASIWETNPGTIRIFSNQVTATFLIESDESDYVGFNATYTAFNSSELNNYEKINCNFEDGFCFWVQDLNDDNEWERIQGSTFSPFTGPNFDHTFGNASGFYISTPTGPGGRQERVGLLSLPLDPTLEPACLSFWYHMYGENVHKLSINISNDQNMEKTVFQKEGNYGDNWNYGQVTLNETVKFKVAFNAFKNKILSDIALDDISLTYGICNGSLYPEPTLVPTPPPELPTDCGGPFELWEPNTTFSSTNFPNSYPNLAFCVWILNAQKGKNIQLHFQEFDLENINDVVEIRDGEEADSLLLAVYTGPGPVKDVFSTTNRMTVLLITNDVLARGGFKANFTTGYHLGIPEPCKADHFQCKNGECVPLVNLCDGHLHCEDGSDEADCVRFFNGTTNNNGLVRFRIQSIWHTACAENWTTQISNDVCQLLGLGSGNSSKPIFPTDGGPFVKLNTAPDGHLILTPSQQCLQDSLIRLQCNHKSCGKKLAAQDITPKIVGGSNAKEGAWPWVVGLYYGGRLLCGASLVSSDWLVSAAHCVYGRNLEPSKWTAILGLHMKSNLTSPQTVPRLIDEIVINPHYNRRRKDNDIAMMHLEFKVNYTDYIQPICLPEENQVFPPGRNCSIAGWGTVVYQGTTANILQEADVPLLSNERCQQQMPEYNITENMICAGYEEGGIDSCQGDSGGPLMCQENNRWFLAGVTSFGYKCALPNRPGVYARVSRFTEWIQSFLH

Row | SMILES | inhibition at 0.1 µM (Bovine trypsin) | inhibition at 1 µM (Bovine trypsin) | inhibition at 10 µM (Bovine trypsin) | inhibition at 0.1 µM [1] | inhibition at 1 µM [1] | inhibition at 10 µM [1]
1 | C/C(=N\O)Nc1ccc(C(=O)Oc2ccc(CC(=O)O)n3ncnc23)cc1 [Compound 40, (E)-2-(8-(4-(N′-hydroxyacetimidamido)benzoyloxy)-[1,2,4]triazolo[1,5-a]pyridin-5-yl)acetic acid] | -8% | -0.4% | 10.1% | -10.7% | -10.1% | -10.8%
2 | CN(C(=N)N)c1ccc(C(=O)Oc2ccc(CC(=O)O)n3ncnc23)cc1 [Compound 35, 2-(8-(4-(1-methylguanidino)benzoyloxy)-[1,2,4]triazolo[1,5-a]pyridin-5-yl)acetic acid] | 31.4% | 89.2% | 98.9% | 40.5% | 93.8% | 99.3%
